Measured values as given in the supplement of paper PMC10627819.

Columns and labels:
S. aureus Newman [1] = assay: fitness (endpoint OD595 vs no drug) (fraction); higher = more growth
Method in brief: (§1)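 Bacterial growth was followed in 384-well plates seeded at OD595 0.01, with 30 µl per well, or 55 µl for S. pneumoniae, in TSB, LB Lennox or CY at 37 °C. OD595 was read every 30 min for 14 h, and each reading had the first reading subtracted as background. Fitness is the background-corrected optical density at entry into stationary phase divided by the robust mean of the no-drug control wells. This ratio is capped at 1.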

B. subtilis 168 [2] = assay: Bliss interaction score (quartile over a dose matrix) (fitness difference); higher = more antagonism (negative = synergy)
Method in brief: (§2)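 Combination data were used to infer fitness under each single drug. Fitness is the OD595 at entry into stationary phase divided by the robust mean of the plate's no-drug wells, with a cap of 1. The Bliss score is the observed minus the expected product fitness, summarised by quartiles over technical, biological and donor/recipient replicates.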

S. aureus DSM 20231 = assay: as above
Method in brief: as §2

S. aureus Newman [3] = assay: as above
Method in brief: as §2

S. pneumoniae D39V [4] = assay: as above
Method in brief: as §2

S. pneumoniae D39V [5] = assay: fitness (endpoint OD595 vs no drug) (fraction); higher = more growth
Method in brief: as §1

B. subtilis 168 [6] = assay: as above; conditions: one replicate, main component drawn
Method in brief: as §1
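Throughout, for Bliss interaction score (quartile over a dose matrix): first quartile when negative (synergy) and third quartile when positive (antagonism).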

CC[C@H]1OC(=O)[C@H](C)[C@@H](O[C@H]2C[C@@](C)(OC)[C@@H](O)[C@H](C)O2)[C@H](C)[C@@H](O[C@@H]2O[C@H](C)C[C@H](N(C)C)[C@H]2O)[C@](C)(O)C[C@@H](C)CN(C)[C@H](C)[C@@H](O)[C@]1(C)O [Azithromycin] + C/C(=C\C(=O)OCCCCCCCCC(=O)O)C[C@@H]1OC[C@H](C[C@@H]2O[C@H]2[C@@H](C)[C@H](C)O)[C@@H](O)[C@H]1O [Pseudomonic acid]
fitness, S. aureus Newman [1], one replicate
Conditions	first compound 0.125 µg/mL	first compound 0.25 µg/mL	first compound 0.5 µg/mL
partner 0.0313 µg/mL	0.0547	0.0237	0
partner 0.0625 µg/mL	0.0262	0.0139	0.0154
partner 0.125 µg/mL	0.0288	0.0141	0.0119

Conditions	Bliss interaction score
B. subtilis 168 [2]	-0.0541
S. aureus DSM 20231	-0.0221
S. aureus Newman [3]	-0.0303
S. pneumoniae D39V [4]	-0.0833

CC1=C(C(=O)O)N2C(=O)[C@@H](NC(=O)[C@H](N)c3ccccc3)[C@H]2SC1 [Cephalexin] + C/C(=C\C(=O)OCCCCCCCCC(=O)O)C[C@@H]1OC[C@H](C[C@@H]2O[C@H]2[C@@H](C)[C@H](C)O)[C@@H](O)[C@H]1O [Pseudomonic acid]
fitness, one replicate
Conditions	first compound 0.125 µg/mL	first compound 0.25 µg/mL	first compound 0.5 µg/mL	first compound 1 µg/mL	first compound 2 µg/mL
S. aureus Newman [1], partner 0.0313 µg/mL	–	–	0.0692	0.0733	0.0904
S. aureus Newman [1], partner 0.0625 µg/mL	–	–	0.036	0.0347	0.0466
S. aureus Newman [1], partner 0.125 µg/mL	–	–	0.0496	0.0429	0.049
S. pneumoniae D39V [5], partner 0.03 µg/mL	0.933	0.958	≥ 1	–	–
S. pneumoniae D39V [5], partner 0.06 µg/mL	0.733	0.828	0.893	–	–
S. pneumoniae D39V [5], partner 0.12 µg/mL	0.45	0.559	0.616	–	–

fitness, S. pneumoniae D39V [5]
Conditions	first compound 1 µg/mL	first compound 2 µg/mL	first compound 4 µg/mL
partner 0.03 µg/mL	0.67	–	0.0998
partner 0.06 µg/mL	0.6	–	0.123
partner 0.12 µg/mL	0.38	0.215	0.122

Conditions	Bliss interaction score
B. subtilis 168 [2]	0.0311
S. aureus DSM 20231	0.0119
S. aureus Newman [3]	0.0223
S. pneumoniae D39V [4]	0.154

CC1=C(C(=O)O)N2C(=O)[C@@H](NC(=O)[C@H](N)c3ccccc3)[C@H]2SC1 [Cephalexin] + CCC(C)C1C(=O)NC(=C)C(=O)NC(C(=O)NC(CSCC(C(=O)N1)NC(=O)/C(=C/C)/NC(=O)C(C(C)CC)N)C(=O)NC2C(SCC(NC(=O)CNC(=O)C3CCCN3C2=O)C(=O)NC(CCCCN)C(=O)NC4C(SCC(NC(=O)CNC(=O)C(NC(=O)C(NC(=O)C(NC(=O)CNC4=O)C)CC(C)C)CCSC)C(=O)NC(CC(=O)N)C(=O)NC(CCSC)C(=O)NC(CCCCN)C(=O)NC5C(SCC6C(=O)NC(C(=O)NC(CSC(C(C(=O)N6)NC(=O)C(NC5=O)C)C)C(=O)NC(CO)C(=O)NC(C(C)CC)C(=O)NC(CC7=CN=CN7)C(=O)NC(C(C)C)C(=O)NC(=C)C(=O)NC(CCCCN)C(=O)O)CC8=CN=CN8)C)C)C)CC(C)C [Nisin]
fitness, B. subtilis 168 [6]
Conditions	first compound 0.125 µg/mL	first compound 0.25 µg/mL	first compound 0.5 µg/mL	first compound 1 µg/mL
partner 0.5 µg/mL	0.827	0.849	0.85	–
partner 1 µg/mL	0.819	0.833	0.845	–
partner 1.25 µg/mL	–	≥ 1	0.914	0.959
partner 1.6 µg/mL	–	0.8	0.735	0.85
partner 2 µg/mL	0.564	0.546	0.643	–
partner 2.5 µg/mL	–	0.323	0.638	0.621
partner 3.2 µg/mL	–	0.0408	0.05	0.038
partner 4 µg/mL	0.0357	0.0253	0.0342	–
partner 5 µg/mL	–	0.0428	0.0078	0.0511
partner 6.4 µg/mL	–	0.055	0.052	0.0405
partner 8 µg/mL	0.0286	0.0256	0.0219	–
partner 16 µg/mL	0.0223	0.0191	0.051	–

fitness, S. pneumoniae D39V [5], one replicate, main component drawn
Conditions	first compound 0.125 µg/mL	first compound 0.25 µg/mL	first compound 0.5 µg/mL
partner 1.6 µg/mL	0.111	0.067	0.12
partner 3.2 µg/mL	0.0257	0.0254	0.0215
partner 6.4 µg/mL	0.0326	0.0252	0.0194

fitness, S. pneumoniae D39V [5], main component drawn
Conditions	first compound 1 µg/mL	first compound 2 µg/mL	first compound 4 µg/mL
partner 0.4275 µg/mL	–	–	0.0461
partner 0.855 µg/mL	–	0.0896	0.05
partner 1.71 µg/mL	0.0562	0.0571	0.0769

main component drawn
Conditions	Bliss interaction score
B. subtilis 168 [2]	0.0739
S. aureus DSM 20231	0.0845
S. aureus Newman [3]	0.0391
S. pneumoniae D39V [4]	-0.0433

CC1=C(C(=O)O)N2C(=O)[C@@H](NC(=O)[C@H](N)c3ccccc3)[C@H]2SC1 [Cephalexin] + CCCCCCCCCC(=O)N[C@@H]1[C@H]([C@@H]([C@H](O[C@H]1OC2=C3C=C4C=C2OC5=C(C=C(C=C5)[C@H]([C@H]6C(=O)N[C@@H](C7=C(C(=CC(=C7)O)OC8[C@H]([C@H]([C@@H]([C@H](O8)CO)O)O)O)C9=C(C=CC(=C9)[C@H](C(=O)N6)NC(=O)[C@@H]4NC(=O)[C@@H]1C2=CC(=CC(=C2)OC2=C(C=CC(=C2)[C@H](C(=O)N[C@H](CC2=CC(=C(O3)C=C2)Cl)C(=O)N1)N)O)O)O)C(=O)O)O[C@H]1[C@@H]([C@H]([C@@H]([C@H](O1)CO)O)O)NC(=O)C)Cl)CO)O)O [Teicoplanin]
fitness, S. aureus Newman [1], main component drawn
Conditions	first compound 0.25 µg/mL	first compound 0.5 µg/mL	first compound 1 µg/mL
partner 0.1562 µg/mL	≥ 1	≥ 1	≥ 1
partner 0.3125 µg/mL	≥ 1	≥ 1	≥ 1
partner 0.625 µg/mL	≥ 1	≥ 1	≥ 1

fitness, S. aureus Newman [1], one replicate, main component drawn
Conditions	first compound 0.5 µg/mL	first compound 1 µg/mL	first compound 2 µg/mL
partner 0.62 µg/mL	0.827	0.855	0.847
partner 1.24 µg/mL	0.77	0.796	0.739
partner 2.48 µg/mL	0.565	0.498	0.587

main component drawn
Conditions	Bliss interaction score
B. subtilis 168 [2]	0.0688
S. aureus DSM 20231	0.0334
S. aureus Newman [3]	0.0429
S. pneumoniae D39V [4]	0.0339
